Results published in ChEMBL document CHEMBL1201862, “PubChem BioAssay data set” (2004).
The source made the active and inactive calls.

Key:
[1] = target: G-protein coupled receptor 55 (Homo sapiens, UniProt Q9Y2T6); test: inhibition of LPI-stimulated GPR55 beta-arrestin translocation – imaging, U2OS, beta-arrestin-GFP, LPI agonist, primary screen (AID 2013); assay type: functional;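 further: antagonist potency measured as reduced agonist-driven arrestin aggregation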
[2] = target: T1, Alkaline phosphatase, tissue-nonspecific isozyme (Homo sapiens, UniProt P05186); test: potency against alkaline phosphatase TNAP – biochemical, luminescent, dose response, SAR follow-up (AID 1056)
T1 sequence (P05186 whole entry): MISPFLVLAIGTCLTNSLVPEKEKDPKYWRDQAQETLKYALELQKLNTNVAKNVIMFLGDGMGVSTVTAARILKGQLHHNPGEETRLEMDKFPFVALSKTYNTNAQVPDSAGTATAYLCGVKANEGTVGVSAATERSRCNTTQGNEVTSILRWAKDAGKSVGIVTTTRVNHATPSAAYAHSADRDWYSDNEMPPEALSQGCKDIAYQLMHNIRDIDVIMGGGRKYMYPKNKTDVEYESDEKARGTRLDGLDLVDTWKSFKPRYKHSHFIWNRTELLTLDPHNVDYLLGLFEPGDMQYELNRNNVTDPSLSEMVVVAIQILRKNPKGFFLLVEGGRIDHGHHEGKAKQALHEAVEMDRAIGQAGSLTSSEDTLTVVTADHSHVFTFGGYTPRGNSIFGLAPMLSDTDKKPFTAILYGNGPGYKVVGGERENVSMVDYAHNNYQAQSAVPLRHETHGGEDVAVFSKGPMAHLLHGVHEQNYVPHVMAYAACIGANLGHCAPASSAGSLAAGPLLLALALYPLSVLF

[3] = target: Glyceraldehyde-3-phosphate dehydrogenase (Homo sapiens, UniProt P04406)
Chain of Glyceraldehyde-3-phosphate dehydrogenase (P04406 whole entry): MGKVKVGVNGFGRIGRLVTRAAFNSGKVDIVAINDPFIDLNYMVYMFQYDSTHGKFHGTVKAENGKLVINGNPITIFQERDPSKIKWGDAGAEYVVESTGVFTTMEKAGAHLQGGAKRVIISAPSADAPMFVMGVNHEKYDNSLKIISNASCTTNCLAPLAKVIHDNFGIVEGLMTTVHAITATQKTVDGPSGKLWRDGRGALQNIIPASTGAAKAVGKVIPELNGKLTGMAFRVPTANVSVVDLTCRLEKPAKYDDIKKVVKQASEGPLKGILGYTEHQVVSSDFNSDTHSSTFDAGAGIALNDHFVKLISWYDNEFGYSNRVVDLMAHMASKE

[4] = Trypanosoma cruzi growth suppression in host cells – NIH3T3 host cells, beta-gal luminescence, confirmation (AID 2044); assay type: functional, cell-based;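 further: intracellular parasites grown in NIH/3T3 mouse fibroblasts as host cells; luminescent beta-galactosidase reporter signal from transgenic T. cruzi replicating inside host cells; inhibitors lower the luminescence signal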
[5] = NIH3T3 cell viability loss – ATP luminescence, mouse fibroblasts, counter-screen, dose response (AID 2010); assay type: functional, cell-based;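 further: cells exposed to compound for about 90 hours before reading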
[6] = target: Glucose-6-phosphate 1-dehydrogenase (Homo sapiens, UniProt P11413); test: inhibition of Homo sapiens G6PD, dose series – biochemical, fluorescence, selectivity assay for P. falciparum G6PD inhibitor project, dose response (AID 504792); assay type: functional
Cytochrome P450 2C19 = Cytochrome P450 2C19 (Homo sapiens, UniProt P33261); test: Cytochrome panel assay with activity outcomes. Panel member name: p450-cyp2c19 Compounds with AC50 equal or less than 10 uM are considered active; assay type: functional; details: read-out: AC50
Chain of Cytochrome P450 2C19 (P33261 whole entry): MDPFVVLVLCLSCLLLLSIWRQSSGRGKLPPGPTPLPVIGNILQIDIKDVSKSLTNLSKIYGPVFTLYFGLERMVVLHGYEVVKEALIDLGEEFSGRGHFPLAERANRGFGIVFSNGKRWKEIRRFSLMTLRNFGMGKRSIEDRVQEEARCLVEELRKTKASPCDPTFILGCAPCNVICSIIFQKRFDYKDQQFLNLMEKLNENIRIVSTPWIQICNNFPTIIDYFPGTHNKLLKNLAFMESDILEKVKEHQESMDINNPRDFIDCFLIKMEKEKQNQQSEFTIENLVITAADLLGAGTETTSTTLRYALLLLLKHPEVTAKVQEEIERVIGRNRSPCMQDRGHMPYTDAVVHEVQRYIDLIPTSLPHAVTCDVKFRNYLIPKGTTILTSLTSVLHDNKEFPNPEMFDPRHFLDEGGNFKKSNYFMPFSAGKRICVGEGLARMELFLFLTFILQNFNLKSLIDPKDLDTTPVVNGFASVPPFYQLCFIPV

[7] = target: T2, Kappa-type opioid receptor (Homo sapiens, UniProt P41145); assay type: functional
T2 sequence (P41145 whole entry): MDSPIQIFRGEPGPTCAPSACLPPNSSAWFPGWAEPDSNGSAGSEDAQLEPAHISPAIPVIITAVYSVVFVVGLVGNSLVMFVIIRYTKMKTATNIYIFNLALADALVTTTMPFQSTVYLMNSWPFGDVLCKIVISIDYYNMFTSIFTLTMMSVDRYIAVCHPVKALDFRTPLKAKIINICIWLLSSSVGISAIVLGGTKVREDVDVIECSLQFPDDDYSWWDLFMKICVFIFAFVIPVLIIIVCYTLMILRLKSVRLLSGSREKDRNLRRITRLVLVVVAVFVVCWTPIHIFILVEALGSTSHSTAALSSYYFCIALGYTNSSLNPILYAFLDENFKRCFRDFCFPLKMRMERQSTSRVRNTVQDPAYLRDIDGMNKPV

[8] = target: T3, Delta-type opioid receptor (Homo sapiens, UniProt P41143); test: HTS Image-Based Screen for Antagonists of the DOR Receptor. [Related pubchem assays (depositor defined):AID1777, AID1785, AID1786, AID2133]; assay type: functional
T3 sequence (P41143 whole entry): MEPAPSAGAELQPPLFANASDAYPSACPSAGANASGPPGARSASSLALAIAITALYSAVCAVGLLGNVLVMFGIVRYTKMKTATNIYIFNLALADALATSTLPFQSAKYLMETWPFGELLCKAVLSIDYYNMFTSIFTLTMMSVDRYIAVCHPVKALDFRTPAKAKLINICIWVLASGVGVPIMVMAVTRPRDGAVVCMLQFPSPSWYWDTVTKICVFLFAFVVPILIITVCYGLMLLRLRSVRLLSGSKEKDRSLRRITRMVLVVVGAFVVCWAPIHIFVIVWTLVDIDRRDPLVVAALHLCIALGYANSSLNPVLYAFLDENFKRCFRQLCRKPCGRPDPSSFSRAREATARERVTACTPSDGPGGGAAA

Mu-type opioid receptor = Mu-type opioid receptor (Homo sapiens, UniProt P35372); test: HTS Image-Based Screen for Agonists of the MOR Receptor. [Related pubchem assays (depositor defined):AID1777, AID1785, AID1786, AID2133]; assay type: functional;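 further: imaging of beta-arrestin GFP recruitment into spots after receptor activation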
Chain of Mu-type opioid receptor (P35372 whole entry): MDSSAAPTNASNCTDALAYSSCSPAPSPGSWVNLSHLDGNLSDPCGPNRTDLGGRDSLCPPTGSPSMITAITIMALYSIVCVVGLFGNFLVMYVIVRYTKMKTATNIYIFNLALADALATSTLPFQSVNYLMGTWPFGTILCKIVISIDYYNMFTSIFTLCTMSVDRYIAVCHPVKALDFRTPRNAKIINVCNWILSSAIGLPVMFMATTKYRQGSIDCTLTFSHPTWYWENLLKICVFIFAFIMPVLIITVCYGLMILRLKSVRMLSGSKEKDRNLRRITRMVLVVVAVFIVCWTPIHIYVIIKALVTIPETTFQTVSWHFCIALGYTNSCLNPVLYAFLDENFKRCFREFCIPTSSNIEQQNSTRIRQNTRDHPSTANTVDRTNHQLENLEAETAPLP

[9] = target: T2, Kappa-type opioid receptor; assay type: functional; remark: listed apart in the source
Beta-galactosidase = Beta-galactosidase (Escherichia coli, UniProt Q8VNN2); assay type: functional
Chain of Beta-galactosidase (Q8VNN2 whole entry): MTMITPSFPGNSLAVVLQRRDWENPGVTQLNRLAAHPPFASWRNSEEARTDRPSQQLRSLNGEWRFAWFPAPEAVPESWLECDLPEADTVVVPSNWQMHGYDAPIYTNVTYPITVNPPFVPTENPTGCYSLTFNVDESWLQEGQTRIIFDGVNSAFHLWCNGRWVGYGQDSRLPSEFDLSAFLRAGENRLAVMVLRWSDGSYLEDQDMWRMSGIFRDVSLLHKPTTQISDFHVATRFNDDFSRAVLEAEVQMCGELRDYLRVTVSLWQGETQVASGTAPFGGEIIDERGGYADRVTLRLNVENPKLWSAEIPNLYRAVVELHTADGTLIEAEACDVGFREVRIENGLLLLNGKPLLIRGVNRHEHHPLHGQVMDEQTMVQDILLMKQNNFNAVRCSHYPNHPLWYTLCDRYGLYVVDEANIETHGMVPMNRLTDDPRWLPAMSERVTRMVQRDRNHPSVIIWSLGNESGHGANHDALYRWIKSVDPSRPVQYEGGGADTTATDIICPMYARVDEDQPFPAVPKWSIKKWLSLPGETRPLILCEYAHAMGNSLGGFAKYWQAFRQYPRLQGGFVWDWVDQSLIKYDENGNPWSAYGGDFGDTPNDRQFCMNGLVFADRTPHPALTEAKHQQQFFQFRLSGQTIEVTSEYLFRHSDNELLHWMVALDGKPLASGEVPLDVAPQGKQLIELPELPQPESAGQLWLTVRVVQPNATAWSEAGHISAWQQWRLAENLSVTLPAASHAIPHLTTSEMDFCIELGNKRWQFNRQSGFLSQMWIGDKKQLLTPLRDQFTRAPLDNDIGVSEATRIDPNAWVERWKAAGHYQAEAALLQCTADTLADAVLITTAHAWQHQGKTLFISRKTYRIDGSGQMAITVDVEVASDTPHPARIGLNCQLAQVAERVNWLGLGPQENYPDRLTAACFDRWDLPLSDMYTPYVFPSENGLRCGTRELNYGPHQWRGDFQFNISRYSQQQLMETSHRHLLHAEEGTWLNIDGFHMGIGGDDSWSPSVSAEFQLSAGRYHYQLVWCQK

[10] = target: T3, Delta-type opioid receptor; test: HTS Image-Based Screen for Agonists of the DOR Receptor. [Related pubchem assays (depositor defined):AID1777, AID1786, AID2133]; assay type: functional
[11] = target: T4, Short transient receptor potential channel 4 (Mus musculus, UniProt Q9QUQ5); test: block of DAMGO-driven TRPC4 calcium entry – cell-based, HEK293 TRPC4/mu-opioid, Fluo-4 calcium, dose response (AID 434942); assay type: functional;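 further: potency of inhibitors blocking the TRPC4 calcium response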
T4 sequence (Q9QUQ5 whole entry): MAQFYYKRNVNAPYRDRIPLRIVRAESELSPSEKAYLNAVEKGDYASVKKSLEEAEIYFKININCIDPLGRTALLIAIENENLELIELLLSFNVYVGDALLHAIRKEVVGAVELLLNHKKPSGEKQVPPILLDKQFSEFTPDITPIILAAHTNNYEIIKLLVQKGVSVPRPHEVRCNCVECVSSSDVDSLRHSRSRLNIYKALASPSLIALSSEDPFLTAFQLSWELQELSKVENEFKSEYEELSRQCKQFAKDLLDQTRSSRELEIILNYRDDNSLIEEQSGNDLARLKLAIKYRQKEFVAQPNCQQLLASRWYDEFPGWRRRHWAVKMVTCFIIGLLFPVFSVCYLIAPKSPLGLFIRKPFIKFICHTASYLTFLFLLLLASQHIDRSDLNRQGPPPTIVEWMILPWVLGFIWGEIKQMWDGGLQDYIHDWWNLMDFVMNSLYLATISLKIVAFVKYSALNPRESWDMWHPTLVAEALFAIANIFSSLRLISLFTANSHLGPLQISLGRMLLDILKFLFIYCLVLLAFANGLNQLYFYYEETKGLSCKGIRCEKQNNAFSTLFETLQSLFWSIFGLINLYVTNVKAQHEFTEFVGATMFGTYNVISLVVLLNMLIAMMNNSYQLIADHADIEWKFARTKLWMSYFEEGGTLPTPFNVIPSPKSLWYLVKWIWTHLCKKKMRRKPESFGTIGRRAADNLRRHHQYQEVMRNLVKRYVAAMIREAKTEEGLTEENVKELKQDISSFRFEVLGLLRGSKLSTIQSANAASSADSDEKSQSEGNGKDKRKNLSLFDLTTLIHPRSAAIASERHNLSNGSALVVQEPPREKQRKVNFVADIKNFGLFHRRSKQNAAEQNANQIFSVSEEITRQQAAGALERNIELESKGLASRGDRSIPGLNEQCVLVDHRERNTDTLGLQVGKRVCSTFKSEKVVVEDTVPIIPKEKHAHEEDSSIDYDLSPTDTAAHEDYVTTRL

[12] = target: Heat shock protein HSP 90-alpha (Homo sapiens, UniProt P07900); assay type: functional, organism-based
SUMO-activating enzyme [13] = target: T5, SUMO-activating enzyme (Homo sapiens, UniProt Q9UBT2); test: blockers of SAE1/SAE2–UBC9 SUMO transfer – biochemical, HTRF, uHTS, primary screen (AID 2006); assay type: protein-complex assay
T5 sequence (Q9UBE0 whole entry): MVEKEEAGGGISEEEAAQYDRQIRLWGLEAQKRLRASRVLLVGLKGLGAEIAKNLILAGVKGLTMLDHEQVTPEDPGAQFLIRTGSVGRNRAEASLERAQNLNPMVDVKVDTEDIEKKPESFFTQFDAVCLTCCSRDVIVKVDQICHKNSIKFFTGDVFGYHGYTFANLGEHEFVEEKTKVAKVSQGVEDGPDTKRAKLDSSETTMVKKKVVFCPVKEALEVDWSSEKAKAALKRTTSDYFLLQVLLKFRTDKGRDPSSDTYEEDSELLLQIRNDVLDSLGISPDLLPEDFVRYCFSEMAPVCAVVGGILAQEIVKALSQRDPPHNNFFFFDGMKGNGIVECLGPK
T5 sequence (Q9UBT2 whole entry): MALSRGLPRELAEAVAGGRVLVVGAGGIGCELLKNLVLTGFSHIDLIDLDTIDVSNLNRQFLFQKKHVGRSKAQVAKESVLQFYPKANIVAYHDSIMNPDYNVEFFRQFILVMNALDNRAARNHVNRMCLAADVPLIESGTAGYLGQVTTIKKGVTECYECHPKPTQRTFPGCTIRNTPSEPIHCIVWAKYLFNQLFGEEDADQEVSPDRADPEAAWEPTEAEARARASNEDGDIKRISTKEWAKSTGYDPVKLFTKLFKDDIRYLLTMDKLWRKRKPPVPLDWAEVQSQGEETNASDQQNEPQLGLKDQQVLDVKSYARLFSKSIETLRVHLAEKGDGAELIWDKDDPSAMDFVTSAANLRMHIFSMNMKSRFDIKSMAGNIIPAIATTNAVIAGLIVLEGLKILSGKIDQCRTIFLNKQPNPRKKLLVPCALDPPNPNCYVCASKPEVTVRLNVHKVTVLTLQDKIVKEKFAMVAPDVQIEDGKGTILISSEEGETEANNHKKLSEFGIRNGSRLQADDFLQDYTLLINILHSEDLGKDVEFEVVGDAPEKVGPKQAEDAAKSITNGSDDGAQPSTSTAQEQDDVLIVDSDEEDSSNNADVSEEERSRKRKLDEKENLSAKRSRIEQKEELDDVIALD

SUMO-activating enzyme [14] = target: T5, SUMO-activating enzyme; test: blockers of UBC9-mediated SUMO conjugation – biochemical, AlphaScreen, SUMOylation inhibitor project, confirmation (AID 2018); assay type: functional
[15] = target: T4, Short transient receptor potential channel 4; test: calcium entry via TRPC4 opening agents – cell-based, HEK293 TRPC4/mu-opioid, Fluo-4 calcium, dose response (AID 434937); assay type: functional
CAAX prenyl protease 2 = target: T6, CAAX prenyl protease 2 (Saccharomyces cerevisiae S288c, UniProt Q03530); assay type: biochemical
T6 sequence (Q03530 whole entry): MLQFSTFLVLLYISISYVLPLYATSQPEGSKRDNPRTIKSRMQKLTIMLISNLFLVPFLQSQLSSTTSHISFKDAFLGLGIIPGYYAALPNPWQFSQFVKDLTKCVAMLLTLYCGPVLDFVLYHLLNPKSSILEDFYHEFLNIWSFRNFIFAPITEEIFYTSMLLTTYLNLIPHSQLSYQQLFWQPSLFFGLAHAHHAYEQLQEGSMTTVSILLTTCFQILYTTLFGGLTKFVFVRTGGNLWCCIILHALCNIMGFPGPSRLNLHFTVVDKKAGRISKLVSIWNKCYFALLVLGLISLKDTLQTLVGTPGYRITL

[16] = target: T7, Zinc finger protein mex-5 (Caenorhabditis elegans, UniProt Q9XUB2); test: potency of MEX-5 RNA-binding blockers – biochemical, C. elegans, fluorescence polarization, dose response (AID 1960)
T7 sequence (Q9XUB2 whole entry): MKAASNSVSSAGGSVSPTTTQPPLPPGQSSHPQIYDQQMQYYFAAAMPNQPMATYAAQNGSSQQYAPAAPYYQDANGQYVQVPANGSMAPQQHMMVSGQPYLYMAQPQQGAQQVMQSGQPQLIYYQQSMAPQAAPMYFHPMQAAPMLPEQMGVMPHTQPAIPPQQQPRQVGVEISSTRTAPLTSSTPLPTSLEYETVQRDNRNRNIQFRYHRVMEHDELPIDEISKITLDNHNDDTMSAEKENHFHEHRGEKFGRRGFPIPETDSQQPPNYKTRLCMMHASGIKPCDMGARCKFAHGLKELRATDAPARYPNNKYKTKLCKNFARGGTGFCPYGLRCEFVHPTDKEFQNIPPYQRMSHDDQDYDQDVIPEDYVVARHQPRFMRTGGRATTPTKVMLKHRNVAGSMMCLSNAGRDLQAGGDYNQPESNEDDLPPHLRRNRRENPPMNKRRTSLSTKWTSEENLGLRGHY

[17] = Luminescence Cell-Based Dose Confirmation HTS to Identify Inhibitors of Platelet Dense Granule Release. [Related pubchem assays: 1663 (Primary HTS), 1678 (Summary of Project)]; assay type: functional
[18] = target: Luciferin 4-monooxygenase (Photinus pyralis, UniProt P08659); test: inhibition of purified Photinus pyralis luciferase – biochemical, luminescence, dose response (AID 1891)
Chain of Luciferin 4-monooxygenase (P08659 whole entry): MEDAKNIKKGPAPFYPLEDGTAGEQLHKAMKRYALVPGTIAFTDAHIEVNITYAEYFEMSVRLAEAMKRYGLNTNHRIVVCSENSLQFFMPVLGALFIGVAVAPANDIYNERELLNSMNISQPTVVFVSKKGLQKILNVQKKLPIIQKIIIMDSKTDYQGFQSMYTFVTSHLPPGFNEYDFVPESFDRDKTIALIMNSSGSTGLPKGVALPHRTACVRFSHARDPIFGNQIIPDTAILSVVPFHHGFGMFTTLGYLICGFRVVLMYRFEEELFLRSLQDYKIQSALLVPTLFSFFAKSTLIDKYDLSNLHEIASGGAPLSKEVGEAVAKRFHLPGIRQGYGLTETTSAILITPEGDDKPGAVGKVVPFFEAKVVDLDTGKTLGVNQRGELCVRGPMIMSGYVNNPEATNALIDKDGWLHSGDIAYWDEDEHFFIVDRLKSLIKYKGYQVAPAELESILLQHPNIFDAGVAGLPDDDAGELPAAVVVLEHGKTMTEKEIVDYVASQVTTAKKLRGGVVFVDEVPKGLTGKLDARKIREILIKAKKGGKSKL

[19] = loss of viability in HepG2 cells – cell-based, CellTiter-Glo, cherry-picked, cytotoxicity control for Shn3 inhibitor project, dose response (AID 624134); assay type: functional
[20] = target: T8, RNA-binding protein pos-1 (Caenorhabditis elegans, UniProt G5EF15); test: disruptors of C. elegans POS-1 RNA interaction – biochemical, fluorescence polarization, dose response (AID 1964);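 further: purified POS-1 fused to maltose binding protein made in E. coli; potency of compounds blocking POS-1 binding to fluorescent RNA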
T8 sequence (G5EF15 whole entry): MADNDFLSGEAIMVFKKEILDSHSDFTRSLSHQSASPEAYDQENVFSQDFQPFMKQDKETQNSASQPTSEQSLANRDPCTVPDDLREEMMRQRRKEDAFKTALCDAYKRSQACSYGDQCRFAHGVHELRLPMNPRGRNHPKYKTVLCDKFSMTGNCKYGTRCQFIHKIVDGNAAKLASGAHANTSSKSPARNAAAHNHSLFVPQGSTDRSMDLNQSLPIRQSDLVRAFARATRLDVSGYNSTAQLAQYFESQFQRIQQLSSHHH

[21] = A Cell Based Secondary Assay To Explore Cytotoxicity of Compounds that Sensitize Mycobacterium Tuberculosis to Beta-Lactam Antibiotics.; assay type: functional
[22] = reduction of Shn3 3'UTR-driven luciferase in osteoblasts – cell-based, Clone20 osteoblasts, firefly luciferase, cherry-picked, dose response (AID 624132); assay type: functional;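 further: firefly luciferase luminescence from reporter carrying the Shn3 3'UTR in osteoblasts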

Chain of G-protein coupled receptor 55 (Q9Y2T6 whole entry): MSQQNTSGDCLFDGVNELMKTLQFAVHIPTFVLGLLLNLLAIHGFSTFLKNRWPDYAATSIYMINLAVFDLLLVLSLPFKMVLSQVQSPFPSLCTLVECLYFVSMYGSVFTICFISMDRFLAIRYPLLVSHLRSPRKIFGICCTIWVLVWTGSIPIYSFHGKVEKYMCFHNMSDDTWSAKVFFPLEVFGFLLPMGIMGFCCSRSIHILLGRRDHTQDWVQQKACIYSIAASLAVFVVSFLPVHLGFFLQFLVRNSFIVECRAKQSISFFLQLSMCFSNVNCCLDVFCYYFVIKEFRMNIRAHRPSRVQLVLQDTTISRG

CC(C)(C)n1nnnc1C(c1cccs1)N(Cc1ccccc1)Cc1cccnc1 (stereo unspecified)
IC50 [1]: 7.73 µM (active)

CC(C)(C)C(=O)COC(=O)c1cc(-c2ccc(Br)cc2)n[nH]1
IC50 [2]: > 100 µM (inactive) | IC50 [3]: > 100 µM (not active)

O=C(CC12CC3CC(CC(C3)C1)C2)NC(=S)NCc1ccco1
EC50 [4]: 2.29 µM (active) | IC50 [1]: 0.969 µM (active) | EC50 [5]: > 60 µM (inconclusive)

CC(C)c1nnc(NC(=O)c2sc3ccccc3c2Cl)s1
IC50 [6]: 67.9 µM (inactive) | AC50 (Cytochrome P450 2C19): 22.4 µM (inconclusive)

CCCCN(CCCNC(=O)C1CCN(S(=O)(=O)N2CCOCC2)CC1)c1ccccc1
IC50 [7]: 25.3 µM (inactive) | IC50 [8]: > 32 µM (inactive) | EC50 (Mu-type opioid receptor): > 32 µM (inactive) | IC50 [9]: 4.56 µM | EC50 (Beta-galactosidase): > 31.5 µM (inactive) | EC50 [10]: > 32 µM (inactive)

CC1CCN(CCOCCOc2ccccc2-c2ccccc2)CC1
EC50 [11]: 2.99 µM (active)

Cc1ccc(S(=O)(=O)N2CCN(c3nc(C)c4c(c3C#N)CC(C)(C)OC4)CC2)cc1
IC50 [1]: 10.9 µM (inactive)

CCC1=NN2C(=N)/C(=C\c3cccn3-c3ccc(C)cc3C)C(=O)N=C2S1
AC50 [12]: 8.16 µM (active)

Fc1ccccc1CNCCC(Cc1ccccc1)c1ccc2c(c1)OCO2 (stereo unspecified)
EC50 [11]: 13.3 µM (active)

Cn1c(CNc2ccc(Cl)cc2)nnc1SCc1ccccc1
AC50 [12]: 4.08 µM (active)

Cc1ccc(NC(=O)COc2ccc(/C=C3/NC(=O)NC3=O)cc2)cc1
IC50 (SUMO-activating enzyme [13]): 17.1 µM (active) | IC50 (SUMO-activating enzyme [14]): 19.2 µM (active)

COc1ccc(C(CNC(=O)c2cccc3cccnc23)N(C)C)cc1 (stereo unspecified)
EC50 [15]: 1.19 µM (active) | EC50 [11]: 0.531 µM (active)

COCCNc1c2c(nc3ccccc13)CCC2
EC50 [11]: 5.96 µM (active)

Cc1cc(OCC(=O)Nc2ccc(S(=O)(=O)N3CCN(C)CC3)cc2)cc(C)c1Cl
IC50 [7]: 7.36 µM (active) | IC50 [8]: > 32 µM (inactive) | EC50 (Mu-type opioid receptor): > 32 µM (inactive) | IC50 [9]: > 32 µM | EC50 (Beta-galactosidase): > 31.5 µM (inactive) | EC50 [10]: > 32 µM (inactive)

O=C1c2ccccc2C(=O)N1c1nnc[nH]1
IC50 [2]: > 100 µM (inactive) | IC50 [3]: > 100 µM (not active)

CCN1CCN(c2ncnc3sc(C)c(-c4ccccc4)c23)CC1
EC50 [15]: 5.96 µM (active)

CS(=O)(=O)c1ccc(C(=O)OCC(=O)N(CCc2ccccc2)Cc2ccccc2)cc1
AC50 (CAAX prenyl protease 2): 7.85 µM (active)

CN(C)c1ccc(/C=C/c2nc3ccccc3s2)cc1
EC50 [16]: > 300 µM (not active) | EC50 [17]: 4.65 µM (active) | EC50 [18]: 1.43 µM (active) | AC50 [19]: 25.6 µM (active) | EC50 [20]: > 300 µM (not active) | CC50 [21]: 25.3 µM (active) | AC50 [22]: 0.494 µM (active)
